According to ChEMBL document CHEMBL1201862, “PubChem BioAssay data set” (2004):
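In this assay, cells in 96-well plates receive the compound at five concentrations for 48 hours. Endpoints are linearly interpolated between the surrounding concentrations. GI50 marks 50% less growth.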 Activity calls are given as the source filed them. Cut-off read from the data, not from the text of the source: active = GI50 up to about 1.1 µM and inactive = higher. Where a SMILES comes first, the peptide text is derived from it. [ ]: non-standard residue; d: D form. The star is where a group is joined. Octanoyl = CCCCCCCC(=O)*; Aib = CC(C)(N)C(=O)O; tBu = CC(C)(C)*

Assays:
Assay in all cases: growth of human tumour cells (NCI), 48 h
MDA-MB-231 = system: MDA-MB-231
LOX IMVI = system: LOX IMVI
SK-MEL-2 = system: SK-MEL-2
SNB-75 = system: SNB-75
UACC-257 = system: UACC-257
SW-620 = system: SW-620
786-0 = system: 786-0
SF-268 = system: SF-268
KM12 = system: KM12
DU-145 = system: DU-145
TK-10 = system: TK-10
UO-31 = system: UO-31
Malme-3M = system: Malme-3M
U-251 = system: U-251
MCF7 = system: MCF7
Hs-578T = system: Hs-578T
RPMI-8226 = system: RPMI-8226
PC-3 = system: PC-3
MOLT-4 = system: MOLT-4
SF-539 = system: SF-539

Measured: GI50

O=C(O)/C=C\C(=O)Nc1ccc2c(c1)-c1ccccc1C2
inactive: MDA-MB-231 > 100 µM | LOX IMVI 77.3 µM | SK-MEL-2 38.5 µM | SNB-75 > 100 µM | UACC-257 98.6 µM | SW-620 > 100 µM | 786-0 91.4 µM | SF-268 58.2 µM | KM12 > 100 µM | DU-145 80.2 µM | TK-10 > 100 µM | UO-31 > 100 µM | Malme-3M 63.7 µM | U-251 56.2 µM | MCF7 37.3 µM | Hs-578T 44.5 µM | RPMI-8226 42.5 µM | PC-3 69.2 µM

C=C(Cl)/C(=C\Cl)CCC(Br)C(C)C (centres undefined)
inactive: MDA-MB-231 24.9 µM | LOX IMVI 15.8 µM | SK-MEL-2 > 100 µM | SNB-75 > 100 µM | UACC-257 58.5 µM | SW-620 19.5 µM | MOLT-4 37.9 µM | 786-0 60.1 µM | SF-268 > 100 µM | KM12 > 100 µM | DU-145 > 100 µM | TK-10 > 100 µM | UO-31 78.2 µM | U-251 > 100 µM | MCF7 48.9 µM | Hs-578T > 100 µM | RPMI-8226 > 100 µM | SF-539 > 100 µM | PC-3 > 100 µM

O=C1C(/C=C/c2ccc(Cl)cc2)=NNC2N1N=C1NC(=O)C3(NN12)c1ccccc1-c1ccccc13 (centres undefined)
inactive: MDA-MB-231 > 100 µM | LOX IMVI > 100 µM | SK-MEL-2 > 100 µM | SNB-75 > 100 µM | UACC-257 > 100 µM | SW-620 > 100 µM | 786-0 > 100 µM | SF-268 > 100 µM | DU-145 > 100 µM | TK-10 > 100 µM | UO-31 94 µM | Malme-3M > 100 µM | U-251 > 100 µM | MCF7 26.5 µM | Hs-578T 65.6 µM | SF-539 > 100 µM | PC-3 > 100 µM

N#Cc1ncc(C(Cl)Cl)nc1Cl
inactive: MDA-MB-231 1.74 µM | LOX IMVI 1.44 µM | SK-MEL-2 1.91 µM | SNB-75 2.29 µM | UACC-257 1.53 µM | SW-620 1.94 µM | MOLT-4 3.37 µM | 786-0 1.76 µM | SF-268 2.43 µM | KM12 1.4 µM | DU-145 8.67 µM | TK-10 2.35 µM | UO-31 1.78 µM | Malme-3M 2.43 µM | U-251 1.97 µM | MCF7 1.94 µM | Hs-578T 4.66 µM | SF-539 1.73 µM | PC-3 1.8 µM

CCOC(=O)Nc1nn(C)/c(=N/Cc2ccccc2)s1
inactive: MDA-MB-231 > 100 µM | LOX IMVI > 100 µM | SK-MEL-2 > 100 µM | SNB-75 > 100 µM | UACC-257 > 100 µM | SW-620 > 100 µM | MOLT-4 > 100 µM | 786-0 > 100 µM | KM12 > 100 µM | DU-145 > 100 µM | TK-10 > 100 µM | UO-31 33.4 µM | U-251 > 100 µM | MCF7 > 100 µM | Hs-578T > 100 µM | RPMI-8226 > 100 µM | SF-539 > 100 µM | PC-3 > 100 µM

N#Cc1nc(-c2cnccn2)oc1N
inactive: MDA-MB-231 > 100 µM | LOX IMVI > 100 µM | SK-MEL-2 > 100 µM | SNB-75 > 100 µM | UACC-257 > 100 µM | SW-620 > 100 µM | MOLT-4 > 100 µM | 786-0 > 100 µM | SF-268 > 100 µM | KM12 > 100 µM | DU-145 > 100 µM | TK-10 > 100 µM | UO-31 62.5 µM | U-251 > 100 µM | MCF7 > 100 µM | Hs-578T > 100 µM | RPMI-8226 49.7 µM | PC-3 > 100 µM

CC1COC(c2cn[nH]c2C(N)=O)C1O (centres undefined)
inactive: MDA-MB-231 > 100 µM | LOX IMVI > 100 µM | SK-MEL-2 > 100 µM | SNB-75 > 100 µM | UACC-257 > 100 µM | SW-620 > 100 µM | MOLT-4 > 100 µM | 786-0 > 100 µM | SF-268 > 100 µM | KM12 > 100 µM | DU-145 > 100 µM | TK-10 > 100 µM | UO-31 > 100 µM | U-251 > 100 µM | MCF7 > 100 µM | Hs-578T > 100 µM | RPMI-8226 > 100 µM | SF-539 > 100 µM | PC-3 > 100 µM

CN(C)CCc1ccnc2nc(-c3ccc4ccccc4c3)cn12
inactive: MDA-MB-231 28.8 µM | LOX IMVI 25 µM | SK-MEL-2 > 100 µM | UACC-257 36.3 µM | SW-620 21.4 µM | MOLT-4 35.2 µM | 786-0 25 µM | SF-268 23 µM | KM12 18.1 µM | DU-145 45.2 µM | TK-10 15.7 µM | UO-31 52.6 µM | Malme-3M 96.4 µM | U-251 38.2 µM | MCF7 34.7 µM | Hs-578T 17.8 µM | RPMI-8226 > 100 µM | PC-3 33.7 µM

O=C1CS(=O)(=O)C(c2cccc(Oc3ccccc3)c2)N1c1ccc(Cl)cc1 (centres undefined)
inactive: MDA-MB-231 31.4 µM | LOX IMVI 14.4 µM | SK-MEL-2 15.2 µM | SNB-75 28 µM | UACC-257 14.8 µM | SW-620 30 µM | MOLT-4 20.9 µM | 786-0 16.5 µM | SF-268 25.1 µM | KM12 14.8 µM | DU-145 67.3 µM | TK-10 22.6 µM | UO-31 28.6 µM | Malme-3M 25.4 µM | U-251 19.1 µM | MCF7 13.8 µM | Hs-578T 30.1 µM | SF-539 19.5 µM | PC-3 17.9 µM

CCCCCCCC(=O)NC(C)(C)C(=O)NC(COC(C)(C)C)C(=O)NC(CC(C)C)C(=O)NC(C)(C)C(=O)NC(COC(C)(C)C)C(=O)NC(COC(C)(C)C)C(=O)NC(CC(C)C)C(=O)NC(C)(C)C(=O)NC(COC(C)(C)C)C(=O)NC(C(=O)NC(CC(C)C)C(=O)OC)C(C)CC (centres undefined) (Octanoyl-[Aib]S(tBu)L[Aib]S(tBu)S(tBu)L[Aib]S(tBu)IL-OMe; configuration not given here)
inactive: MDA-MB-231 5.86 µM | LOX IMVI 5.61 µM | SK-MEL-2 6.01 µM | SNB-75 5.24 µM | UACC-257 8.81 µM | SW-620 8.95 µM | MOLT-4 5.52 µM | 786-0 7.89 µM | SF-268 9.95 µM | KM12 6.67 µM | DU-145 6.9 µM | TK-10 7.14 µM | UO-31 14.6 µM | U-251 5.24 µM | MCF7 5.98 µM | Hs-578T 8.85 µM | RPMI-8226 2.72 µM | SF-539 8.49 µM | PC-3 4.23 µM
